Values of other authors, collected in patent publication US20240082151A1, “ORALLY IMPLANTABLE DRUG DELIVERY DEVICE” (priority 2019, published 2024).

Legend:
[1] = system: HIV; settings: target for effective HIV prevention
[2] = target TFV-DP in PBMCs 50 fmol per million cells; PB-PK simulation (ref 33)
[3] = another study (ref 34)

SMILES | steady state plasma CAB concentration, four times the protein adjusted IC90 (PA-IC90) [1] [µg/mL] | linear subcutaneous TAF release rate estimated to lead to protective TFV-DP PBMC concentrations [2] [mg/day] | TAF release rate estimated to be protective [3]
C[C@H]1CO[C@@H]2Cn3cc(C(=O)NCc4ccc(F)cc4F)c(=O)c(O)c3C(=O)N12 [CAB, Cabotegravir] | 0.66 | – | –
CC(C)OC(=O)[C@H](C)N[P@](=O)(CO[C@H](C)Cn1cnc2c(N)ncnc21)Oc1ccccc1 [TAF, Tenofovir alafenamide] | – | 0.5 | ca. 0.3 mg d^−1
